In PMC6891286, “Towards the Development of an In vivo Chemical Probe for Cyclin G Associated Kinase (GAK)” (Molecules, 2019):

Assays:
Test in all cases: KINOMEscan
Assay type in all cases: binding
[1] = biological target: T1, ABL1(T315I)-nonphosphorylated (Homo sapiens, UniProt P00519, T315I); conditions: 35 at 1 µM; read-out: % inhibition
T1 construct: purchased Eurofins DiscoverX (KINOMEscan)
Procedure: (§1) KinomeScan Assay on 35 was performed as previously described at EuroFins DiscoverX (Fremont, CA, USA).

ABL1-phosphorylated = biological target: T2, ABL1-phosphorylated (Homo sapiens, UniProt P00519); conditions: 35 at 1 µM; read-out: % inhibition
T2 construct: purchased Eurofins DiscoverX (KINOMEscan)
Procedure: as §1

ADCK4 = biological target: T3, ADCK4 (Homo sapiens, UniProt Q96D53); conditions: 35 at 1 µM; read-out: % inhibition
T3 construct: purchased Eurofins DiscoverX (KINOMEscan)
T3 sequence (Q96D53 whole entry): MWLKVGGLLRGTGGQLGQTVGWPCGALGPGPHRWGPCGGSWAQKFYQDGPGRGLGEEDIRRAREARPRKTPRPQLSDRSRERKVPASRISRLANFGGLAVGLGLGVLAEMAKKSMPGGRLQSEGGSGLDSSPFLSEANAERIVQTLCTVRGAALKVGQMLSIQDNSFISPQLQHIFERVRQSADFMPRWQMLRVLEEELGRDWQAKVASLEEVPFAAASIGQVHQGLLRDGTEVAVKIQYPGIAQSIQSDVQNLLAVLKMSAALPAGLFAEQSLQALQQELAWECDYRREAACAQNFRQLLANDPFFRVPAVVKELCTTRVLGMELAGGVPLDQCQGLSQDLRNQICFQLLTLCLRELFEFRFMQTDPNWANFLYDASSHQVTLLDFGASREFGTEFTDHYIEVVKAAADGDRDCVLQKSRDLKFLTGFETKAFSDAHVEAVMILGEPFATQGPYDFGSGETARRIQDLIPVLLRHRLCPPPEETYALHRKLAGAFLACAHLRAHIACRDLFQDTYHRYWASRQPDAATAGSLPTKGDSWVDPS
Procedure: as §1

AKT3 = biological target: T4, AKT3 (Homo sapiens, UniProt Q9Y243); conditions: 35 at 1 µM; read-out: % inhibition
T4 construct: purchased Eurofins DiscoverX (KINOMEscan)
Procedure: as §1

ALK(C1156Y) = biological target: T5, ALK(C1156Y) (Homo sapiens, UniProt Q9UM73, C1156Y); conditions: 35 at 1 µM; read-out: % inhibition
T5 construct: purchased Eurofins DiscoverX (KINOMEscan)
Procedure: as §1

CAMK1B = biological target: T6, CAMK1B (Homo sapiens, UniProt Q6P2M8); conditions: 35 at 1 µM; read-out: % inhibition
T6 construct: purchased Eurofins DiscoverX (KINOMEscan)
T6 sequence (Q6P2M8 whole entry): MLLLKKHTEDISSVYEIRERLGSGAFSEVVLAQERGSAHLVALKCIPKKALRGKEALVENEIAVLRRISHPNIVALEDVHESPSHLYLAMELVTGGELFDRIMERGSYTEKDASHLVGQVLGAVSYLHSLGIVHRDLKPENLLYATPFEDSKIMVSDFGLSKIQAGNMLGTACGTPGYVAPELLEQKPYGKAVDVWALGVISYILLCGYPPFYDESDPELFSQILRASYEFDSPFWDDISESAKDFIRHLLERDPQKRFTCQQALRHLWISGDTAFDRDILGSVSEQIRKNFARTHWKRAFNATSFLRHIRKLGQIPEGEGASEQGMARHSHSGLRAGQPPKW
Procedure: as §1

CAMK1D = biological target: T7, CAMK1D (Homo sapiens, UniProt Q8IU85); conditions: 35 at 1 µM; read-out: % inhibition
T7 construct: purchased Eurofins DiscoverX (KINOMEscan)
T7 sequence (Q8IU85 whole entry): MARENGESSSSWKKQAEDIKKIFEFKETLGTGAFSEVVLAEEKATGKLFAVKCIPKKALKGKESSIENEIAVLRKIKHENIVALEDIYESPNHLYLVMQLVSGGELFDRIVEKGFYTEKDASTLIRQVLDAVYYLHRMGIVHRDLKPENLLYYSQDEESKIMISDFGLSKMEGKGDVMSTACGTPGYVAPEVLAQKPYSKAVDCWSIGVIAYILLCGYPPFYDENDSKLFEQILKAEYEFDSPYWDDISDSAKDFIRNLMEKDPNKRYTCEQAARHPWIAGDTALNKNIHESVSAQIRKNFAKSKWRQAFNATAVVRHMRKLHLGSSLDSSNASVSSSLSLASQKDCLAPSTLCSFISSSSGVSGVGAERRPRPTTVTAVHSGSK
Procedure: as §1

CDC2L1 = biological target: T8, CDC2L1 (Homo sapiens, UniProt P21127); conditions: 35 at 1 µM; read-out: % inhibition
T8 construct: purchased Eurofins DiscoverX (KINOMEscan)
Procedure: as §1

CDK2 = biological target: T9, CDK2 (Homo sapiens, UniProt P24941); conditions: 35 at 1 µM; read-out: % inhibition
T9 construct: purchased Eurofins DiscoverX (KINOMEscan)
Procedure: as §1

CDK5 = biological target: T10, CDK5 (Homo sapiens, UniProt Q00535); conditions: 35 at 1 µM; read-out: % inhibition
T10 construct: purchased Eurofins DiscoverX (KINOMEscan)
T10 sequence (Q00535 whole entry): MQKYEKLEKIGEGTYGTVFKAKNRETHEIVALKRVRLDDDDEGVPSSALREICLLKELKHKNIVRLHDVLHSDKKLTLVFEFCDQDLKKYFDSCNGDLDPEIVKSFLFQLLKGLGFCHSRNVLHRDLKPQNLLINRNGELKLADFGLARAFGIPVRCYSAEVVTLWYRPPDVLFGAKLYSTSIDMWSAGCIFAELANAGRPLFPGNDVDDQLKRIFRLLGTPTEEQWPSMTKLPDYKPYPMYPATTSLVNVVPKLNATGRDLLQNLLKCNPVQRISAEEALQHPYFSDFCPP
Procedure: as §1

CDK8 = biological target: T11, CDK8 (Homo sapiens, UniProt P49336); conditions: 35 at 1 µM; read-out: % inhibition
T11 construct: purchased Eurofins DiscoverX (KINOMEscan)
Procedure: as §1

CSF1R = biological target: T12, CSF1R (Homo sapiens, UniProt P07333); conditions: 35 at 1 µM; read-out: % inhibition
T12 construct: purchased Eurofins DiscoverX (KINOMEscan)
T12 sequence (P07333 20-972): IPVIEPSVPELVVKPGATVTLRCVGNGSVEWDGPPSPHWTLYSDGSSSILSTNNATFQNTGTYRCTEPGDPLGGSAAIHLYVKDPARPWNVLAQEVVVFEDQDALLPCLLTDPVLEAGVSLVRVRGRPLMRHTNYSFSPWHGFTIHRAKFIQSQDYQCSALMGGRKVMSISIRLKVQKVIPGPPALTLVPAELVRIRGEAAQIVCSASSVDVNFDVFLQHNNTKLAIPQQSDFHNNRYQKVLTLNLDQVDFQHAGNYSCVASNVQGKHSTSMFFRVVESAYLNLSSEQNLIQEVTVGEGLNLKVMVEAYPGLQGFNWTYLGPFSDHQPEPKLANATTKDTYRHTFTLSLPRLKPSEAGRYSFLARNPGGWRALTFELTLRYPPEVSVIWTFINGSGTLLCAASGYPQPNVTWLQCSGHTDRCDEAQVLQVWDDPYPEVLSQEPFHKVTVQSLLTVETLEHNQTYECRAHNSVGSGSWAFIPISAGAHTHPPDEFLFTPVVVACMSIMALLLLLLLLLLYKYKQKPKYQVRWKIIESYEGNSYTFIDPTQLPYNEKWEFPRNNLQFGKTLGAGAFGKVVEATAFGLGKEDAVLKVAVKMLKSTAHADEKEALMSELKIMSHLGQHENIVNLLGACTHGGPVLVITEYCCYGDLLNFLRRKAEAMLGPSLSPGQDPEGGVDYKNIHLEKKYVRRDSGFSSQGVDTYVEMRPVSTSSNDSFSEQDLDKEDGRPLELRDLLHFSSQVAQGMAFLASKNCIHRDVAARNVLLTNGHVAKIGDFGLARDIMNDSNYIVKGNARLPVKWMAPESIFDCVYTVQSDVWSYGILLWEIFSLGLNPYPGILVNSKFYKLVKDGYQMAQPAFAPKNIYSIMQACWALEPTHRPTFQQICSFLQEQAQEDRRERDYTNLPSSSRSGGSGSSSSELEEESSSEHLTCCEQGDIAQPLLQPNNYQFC
Procedure: as §1

DCAMKL2 = biological target: T13, DCAMKL2 (Homo sapiens, UniProt Q8N568); conditions: 35 at 1 µM; read-out: % inhibition
T13 construct: purchased Eurofins DiscoverX (KINOMEscan)
Procedure: as §1

DYRK1A = biological target: T14, DYRK1A (Homo sapiens, UniProt Q13627); conditions: 35 at 1 µM; read-out: % inhibition
T14 construct: purchased Eurofins DiscoverX (KINOMEscan)
Procedure: as §1

EGFR(L858R) = biological target: T15, EGFR(L858R) (Homo sapiens, UniProt P00533, L858R); conditions: 35 at 1 µM; read-out: % inhibition
T15 construct: purchased Eurofins DiscoverX (KINOMEscan)
Procedure: as §1

ERK3 = biological target: T16, ERK3 (Homo sapiens, UniProt Q16659); conditions: 35 at 1 µM; read-out: % inhibition
T16 construct: purchased Eurofins DiscoverX (KINOMEscan)
Procedure: as §1

GCN2(Kin.Dom.2,S808G) = biological target: T17, GCN2(Kin.Dom.2,S808G) (Homo sapiens, UniProt Q9P2K8, S808G); conditions: 35 at 1 µM; read-out: % inhibition
T17 construct: GCN2(Kin.Dom.2,S808G); purchased Eurofins DiscoverX (KINOMEscan)
Procedure: as §1

KIT(D816V) = biological target: T18, KIT(D816V) (Homo sapiens, UniProt P10721, D816V); conditions: 35 at 1 µM; read-out: % inhibition
T18 construct: purchased Eurofins DiscoverX (KINOMEscan)
T18 sequence (P10721 26-976 D816V): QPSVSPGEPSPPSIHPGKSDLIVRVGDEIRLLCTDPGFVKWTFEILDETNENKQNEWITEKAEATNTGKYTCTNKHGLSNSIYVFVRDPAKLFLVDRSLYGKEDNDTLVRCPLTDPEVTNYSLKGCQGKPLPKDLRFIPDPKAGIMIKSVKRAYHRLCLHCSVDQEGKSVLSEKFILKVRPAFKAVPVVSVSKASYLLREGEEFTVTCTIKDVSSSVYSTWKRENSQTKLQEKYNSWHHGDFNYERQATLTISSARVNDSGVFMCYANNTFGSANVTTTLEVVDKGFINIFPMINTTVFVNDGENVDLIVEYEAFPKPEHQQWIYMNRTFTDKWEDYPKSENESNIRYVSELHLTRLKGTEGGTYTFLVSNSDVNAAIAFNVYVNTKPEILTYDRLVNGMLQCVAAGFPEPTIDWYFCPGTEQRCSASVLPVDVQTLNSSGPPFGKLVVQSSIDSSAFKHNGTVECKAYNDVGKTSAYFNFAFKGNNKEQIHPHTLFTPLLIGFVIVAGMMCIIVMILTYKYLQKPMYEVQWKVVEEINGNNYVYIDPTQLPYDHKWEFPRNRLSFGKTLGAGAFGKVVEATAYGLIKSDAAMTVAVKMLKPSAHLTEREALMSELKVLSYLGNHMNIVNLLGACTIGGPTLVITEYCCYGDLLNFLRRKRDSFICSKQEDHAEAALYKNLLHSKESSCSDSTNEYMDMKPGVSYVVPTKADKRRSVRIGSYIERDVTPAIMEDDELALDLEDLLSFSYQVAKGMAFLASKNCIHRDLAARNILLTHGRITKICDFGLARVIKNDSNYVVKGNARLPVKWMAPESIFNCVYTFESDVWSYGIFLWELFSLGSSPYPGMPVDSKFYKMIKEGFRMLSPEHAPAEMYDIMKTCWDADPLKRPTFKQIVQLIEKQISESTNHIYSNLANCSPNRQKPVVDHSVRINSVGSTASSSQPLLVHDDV
Procedure: as §1

LIMK2 = biological target: T19, LIMK2 (Homo sapiens, UniProt P53671); conditions: 35 at 1 µM; read-out: % inhibition
T19 construct: purchased Eurofins DiscoverX (KINOMEscan)
T19 sequence (P53671 whole entry): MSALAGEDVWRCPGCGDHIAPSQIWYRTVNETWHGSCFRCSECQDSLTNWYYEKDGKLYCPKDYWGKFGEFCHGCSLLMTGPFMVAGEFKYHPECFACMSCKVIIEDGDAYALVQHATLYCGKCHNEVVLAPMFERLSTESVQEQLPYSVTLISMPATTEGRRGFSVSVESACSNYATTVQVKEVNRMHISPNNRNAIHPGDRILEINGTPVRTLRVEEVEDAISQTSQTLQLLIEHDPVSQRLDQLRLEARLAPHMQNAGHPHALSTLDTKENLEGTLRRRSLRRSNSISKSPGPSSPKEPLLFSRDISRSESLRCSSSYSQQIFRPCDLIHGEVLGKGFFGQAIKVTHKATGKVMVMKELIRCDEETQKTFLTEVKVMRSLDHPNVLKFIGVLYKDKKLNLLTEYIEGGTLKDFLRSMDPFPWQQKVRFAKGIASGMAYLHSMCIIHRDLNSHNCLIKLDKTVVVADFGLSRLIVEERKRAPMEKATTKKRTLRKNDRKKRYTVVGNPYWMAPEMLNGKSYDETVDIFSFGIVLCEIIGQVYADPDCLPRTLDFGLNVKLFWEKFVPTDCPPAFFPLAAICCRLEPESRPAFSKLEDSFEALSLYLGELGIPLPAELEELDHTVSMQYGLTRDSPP
Procedure: as §1

MAPKAPK2 = biological target: T20, MAPKAPK2 (Homo sapiens, UniProt P49137); conditions: 35 at 1 µM; read-out: % inhibition
T20 construct: purchased Eurofins DiscoverX (KINOMEscan)
Procedure: as §1

MAPKAPK5 = biological target: T21, MAPKAPK5 (Homo sapiens, UniProt Q8IW41); conditions: 35 at 1 µM; read-out: % inhibition
T21 construct: purchased Eurofins DiscoverX (KINOMEscan)
Procedure: as §1

MLK2 = biological target: T22, MLK2 (Homo sapiens, UniProt Q02779); conditions: 35 at 1 µM; read-out: % inhibition
T22 construct: purchased Eurofins DiscoverX (KINOMEscan)
Procedure: as §1

MLK3 = biological target: T23, MLK3 (Homo sapiens, UniProt Q16584); conditions: 35 at 1 µM; read-out: % inhibition
T23 construct: purchased Eurofins DiscoverX (KINOMEscan)
Procedure: as §1

MYLK4 = biological target: T24, MYLK4 (Homo sapiens, UniProt Q86YV6); conditions: 35 at 1 µM; read-out: % inhibition
T24 construct: purchased Eurofins DiscoverX (KINOMEscan)
Procedure: as §1

PFCDPK1(P.falciparum) = biological target: T25, PFCDPK1(P.falciparum) (Plasmodium falciparum, UniProt P62344); conditions: read-out: % inhibition
T25 construct: purchased Eurofins DiscoverX (KINOMEscan)
Procedure: as §1

PHKG1 = biological target: T26, PHKG1 (Homo sapiens, UniProt Q16816); conditions: 35 at 1 µM; read-out: % inhibition
T26 construct: purchased Eurofins DiscoverX (KINOMEscan)
Procedure: as §1

PIK3CA(E545A) = biological target: T27, PIK3CA(E545A) (Homo sapiens, UniProt P42336, E545A); conditions: 35 at 1 µM; read-out: % inhibition
T27 construct: purchased Eurofins DiscoverX (KINOMEscan)
Procedure: as §1

PIM1 = biological target: T28, PIM1 (Homo sapiens, UniProt P11309); conditions: 35 at 1 µM; read-out: % inhibition
T28 construct: purchased Eurofins DiscoverX (KINOMEscan)
Procedure: as §1

PLK1 = biological target: T29, PLK1 (Homo sapiens, UniProt P53350); conditions: 35 at 1 µM; read-out: % inhibition
T29 construct: purchased Eurofins DiscoverX (KINOMEscan)
Procedure: as §1

PRKCE = biological target: T30, PRKCE (Homo sapiens, UniProt Q02156); conditions: 35 at 1 µM; read-out: % inhibition
T30 construct: purchased Eurofins DiscoverX (KINOMEscan)
Procedure: as §1

PRKX = biological target: T31, PRKX (Homo sapiens, UniProt P51817); conditions: 35 at 1 µM; read-out: % inhibition
T31 construct: purchased Eurofins DiscoverX (KINOMEscan)
Procedure: as §1

RAF1 = biological target: T32, RAF1 (Homo sapiens, UniProt P04049); conditions: 35 at 1 µM; read-out: % inhibition
T32 construct: purchased Eurofins DiscoverX (KINOMEscan)
Procedure: as §1

RET = biological target: T33, RET (Homo sapiens, UniProt P07949); conditions: 35 at 1 µM; read-out: % inhibition
T33 construct: purchased Eurofins DiscoverX (KINOMEscan)
Procedure: as §1

RET(M918T) = biological target: T34, RET(M918T) (Homo sapiens, UniProt P07949, M918T); conditions: 35 at 1 µM; read-out: % inhibition
T34 construct: purchased Eurofins DiscoverX (KINOMEscan)
Procedure: as §1

RIPK5 = biological target: T35, RIPK5 (Homo sapiens, UniProt Q6XUX3); conditions: 35 at 1 µM; read-out: % inhibition
T35 construct: purchased Eurofins DiscoverX (KINOMEscan)
Procedure: as §1

STK33 = biological target: T36, STK33 (Homo sapiens, UniProt Q9BYT3); conditions: 35 at 1 µM; read-out: % inhibition
T36 construct: purchased Eurofins DiscoverX (KINOMEscan)
Procedure: as §1

STK39 = biological target: T37, STK39 (Homo sapiens, UniProt Q9UEW8); conditions: 35 at 1 µM; read-out: % inhibition
T37 construct: purchased Eurofins DiscoverX (KINOMEscan)
Procedure: as §1

TRPM6 = biological target: T38, TRPM6 (Homo sapiens, UniProt Q9BX84); conditions: 35 at 1 µM; read-out: % inhibition
T38 construct: purchased Eurofins DiscoverX (KINOMEscan)
Procedure: as §1

[2] = biological target: T39, TYK2(JH1domain-catalytic) (Homo sapiens, UniProt P29597); conditions: 35 at 1 µM; read-out: % inhibition
T39 construct: TYK2(JH1domain-catalytic); purchased Eurofins DiscoverX (KINOMEscan)
Procedure: as §1

WEE1 = biological target: T40, WEE1 (Homo sapiens, UniProt P30291); conditions: 35 at 1 µM; read-out: % inhibition
T40 construct: purchased EuroFins DiscoverX (Fremont, CA, USA)
T40 sequence (P30291 whole entry): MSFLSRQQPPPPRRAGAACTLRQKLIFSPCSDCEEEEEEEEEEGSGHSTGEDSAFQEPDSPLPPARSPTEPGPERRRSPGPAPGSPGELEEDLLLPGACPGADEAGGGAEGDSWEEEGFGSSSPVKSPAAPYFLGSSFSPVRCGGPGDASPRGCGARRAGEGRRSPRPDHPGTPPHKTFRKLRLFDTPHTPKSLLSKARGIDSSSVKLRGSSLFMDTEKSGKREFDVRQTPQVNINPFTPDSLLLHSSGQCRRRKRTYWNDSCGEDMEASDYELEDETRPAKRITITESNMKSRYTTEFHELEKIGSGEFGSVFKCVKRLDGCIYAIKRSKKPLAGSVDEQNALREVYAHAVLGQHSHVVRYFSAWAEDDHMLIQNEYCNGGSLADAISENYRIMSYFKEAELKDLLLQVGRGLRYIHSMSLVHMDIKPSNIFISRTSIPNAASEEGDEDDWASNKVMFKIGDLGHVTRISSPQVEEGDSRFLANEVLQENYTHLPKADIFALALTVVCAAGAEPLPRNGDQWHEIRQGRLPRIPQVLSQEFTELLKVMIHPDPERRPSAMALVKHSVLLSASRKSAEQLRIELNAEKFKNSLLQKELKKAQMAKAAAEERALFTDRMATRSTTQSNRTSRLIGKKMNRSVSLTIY
Procedure: as §1

WNK3 = biological target: T41, WNK3 (Homo sapiens, UniProt Q9BYP7); conditions: 35 at 1 µM; read-out: % inhibition
T41 construct: purchased Eurofins DiscoverX (KINOMEscan)
Procedure: as §1

In the case of Brc1ccc2nccc(Nc3ccc4cn[nH]c4c3)c2c1 [Compound 35, 6-Bromo-N-(1H-indazol-6-yl)quinolin-4-amine], the activity at 1 µM [1] is reported as 100%, the activity at 1 µM (ABL1-phosphorylated) is reported as 46% and the activity at 1 µM (ADCK4) is reported as 100%. It also gave an activity at 1 µM (AKT3) of 100%, an activity at 1 µM (ALK(C1156Y)) of 64% and an activity at 1 µM (CAMK1B) of 92%. It also gave an activity at 1 µM (CAMK1D) of 100%, an activity at 1 µM (CDC2L1) of 100% and an activity at 1 µM (CDK2) of 100%. It also gave an activity at 1 µM (CDK5) of 100%, an activity at 1 µM (CDK8) of 83% and an activity at 1 µM (CSF1R) of 95%. The activity at 1 µM (DCAMKL2) was 100%, the activity at 1 µM (DYRK1A) was 77% and the activity at 1 µM (EGFR(L858R)) was 100%. For the same compound, the activity at 1 µM (ERK3) was 100%, the activity at 1 µM (GCN2(Kin.Dom.2,S808G)) was 59% and the activity at 1 µM (KIT(D816V)) was 100%. For the same compound, the activity at 1 µM (LIMK2) was 100%, the activity at 1 µM (MAPKAPK2) was 100% and the activity at 1 µM (MAPKAPK5) was 100%. For the same compound, the activity at 1 µM (MLK2) was 100%, the activity at 1 µM (MLK3) was 100% and the activity at 1 µM (MYLK4) was 100%. The activity at 1 µM (PFCDPK1(P.falciparum)) was 63%, the activity at 1 µM (PHKG1) was 100% and the activity at 1 µM (PIK3CA(E545A)) was 98%. The activity at 1 µM (PIM1) was 100%, the activity at 1 µM (PLK1) was 100% and the activity at 1 µM (PRKCE) was 95%. For the same compound, the activity at 1 µM (PRKX) was 100%, the activity at 1 µM (RAF1) was 100% and the activity at 1 µM (RET) was 100%. For the same compound, the activity at 1 µM (RET(M918T)) was 100%, the activity at 1 µM (RIPK5) was 100% and the activity at 1 µM (STK33) was 100%. The activity at 1 µM (STK39) was 100%, the activity at 1 µM (TRPM6) was 100% and the activity at 1 µM [2] was 100%. It also gave an activity at 1 µM (WEE1) of 100% and an activity at 1 µM (WNK3) of 92%.
